Reference: patent publication US6355799B1, “Substituted benzene compounds, process for their preparation, and herbicidal and defoliant compositions containing them” (ISK Americas Incorporated, priority 1997, dated 2002)

What was measured:
Format in all cases: in vivo
[1] = tested on: velvetleaf (Abutilon theophrasti, ABUTH); assay: Pre-emerge test, greenhouse herbicide activity screening; settings: pre-emerge, 14 days after application, scale 0-100
Excerpt: (§1) A standard greenhouse herbicide activity screening system was used to evaluate the herbicidal efficacy and crop safety of these test compounds. Seven broadleaf weed species including redroot pigweed (Amaranthus retroflexus, AMARE, velvetleaf (Abutilon theophrasti, ABUTH), sicklepod (Cassia obtusifolia, CASOB), ivyleaf morningglory (Ipomoea hederacea, IPOHE), lambsquarters (Chenopodium album, CHEAL), common ragweed (Ambrosia artemisizfolia L., AMBEL), and cocklebur (Xanthium strumarium, XANST) were used as test species. Four grass weed species including green foxtail (Setaria viridis, SETVI), barnyardgrass (Echinochloa crus-galli, ECHCG), johnsongrass (Sorghum halepense, SORHA), and large crabgrass (Digitaria sanguinalis, DIGSA) were also used. In addition, three crop species, field corn (Zea mays L., var. Dekalb 535, CORN), soybean (Glycine max L., var. Pella 86, SOY), and is upland rice (Oryza sp., var. Tebonnet, RICE) were included.
(§2) All plants were grown in 10 cm square plastic pots which were filled with a sandy loam soil mix. For pre-emerge tests, seeds were planted one day prior to application of the test compounds. For post-emerge tests, seeds were planted 8-21 days prior to the test to allow emergence and good foliage development prior to application of the test substances. At the time of the post-emerge application, plants of all species were usually at the 2-3 leaf stage of development.
(§3) All test compounds Were dissolved in acetone and applied to the test units in a volume of 187 l /ha. Test materials were applied at rates ranging from 15 g ai/ha to 1000 g ai/ha using a track sprayer equipped with a TJ8001E even flow flat fan spray nozzle. Plants were arranged on a shelf so that the top of the canopy (post-emerge) or top of the soil surface (pre-emerge) was 40-45 cm below the nozzle. Pressurized air was used to force the test solution through the nozzle as it was mechanically advanced (via electrically driven chain drive) over the top of all test plants/pots. This application simulates a typical commercial field herbicide application.
(§4) In the post-emerge test, a commercial non-ionic surfactant was also included (0.25% v/v) to enhance wetting of the leaf surfaces of target plants. Immediately after application, test units of the pre-emerge applications were watered at the soil surface to incorporate the test materials. Subsequently, these test units were bottom-watered. Post-emerge test units were always bottom-watered.
(§5) At 14 days after application of the test materials, phytotoxicity ratings were recorded. A rating scale of 0-100 was used as previously described in Research Methods in Weed Science, 2nd edition, B. Truelove, Ed., Southern Weed Science Society, Auburn University, Auburn, Ala. 1977. Briefly, “0” corresponds to no damage and “100” corresponds to complete death of all plants in the test unit. This scale was used both to determine efficacy against weed species and damage to crop species. Herbicide activity data for various compounds of this invention, which are shown by compound No. in Tables 1-8, are shown in Tables 11 and 12.

[2] = tested on: barnyardgrass (Echinochloa crus-galli, ECHCG); assay: as above; settings: pre-emerge, 14 days after application, scale 0-100
Excerpt: as §1, §2, §3, §4, §5

[3] = tested on: lambsquarters (Chenopodium album, CHEAL); assay: as above; settings: pre-emerge, 14 days after application, scale 0-100
Excerpt: as §1, §2, §3, §4, §5

[4] = tested on: green foxtail (Setaria viridis, SETVI); assay: as above; settings: pre-emerge, 14 days after application, scale 0-100
Excerpt: as §1, §2, §3, §4, §5

[5] = tested on: sicklepod (Cassia obtusifolia, CASOB); assay: as above; settings: pre-emerge, 14 days after application, scale 0-100
Excerpt: as §1, §2, §3, §4, §5

[6] = tested on: large crabgrass (Digitaria sanguinalis, DIGSA); assay: as above; settings: pre-emerge, 14 days after application, scale 0-100
Excerpt: as §1, §2, §3, §4, §5

[7] = tested on: ivyleaf morningglory (Ipomoea hederacea, IPOHE); assay: as above; settings: pre-emerge, 14 days after application, scale 0-100
Excerpt: as §1, §2, §3, §4, §5

[8] = tested on: field corn (Zea mays L., var. Dekalb 535, CORN); assay: Pre-emerge test, crop safety; settings: pre-emerge, 14 days after application, scale 0-100
In short: (§6)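 Applied at 15–1000 g ai/ha from acetone in 187 l/ha spray volume. Post-emergence applications included 0.25% v/v non-ionic surfactant and reached plants sown 8–21 days before. Pre-emergence applications were incorporated by surface watering. Efficacy or crop damage was rated on a 0–100 scale after 14 days.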

[9] = tested on: upland rice (Oryza sp., var. Tebonnet, RICE); assay: Pre-emerge test, crop safety; settings: pre-emerge, 14 days after application, scale 0-100
In short: as §6

[10] = tested on: redroot pigweed (Amaranthus retroflexus, AMARE); assay: Pre-emerge test, greenhouse herbicide activity screening; settings: pre-emerge, 14 days after application, scale 0-100
In short: (§7)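 Herbicidal damage is scored 0 (none) to 100 (complete plant death) two weeks after a simulated field spray. Rates span 15–1000 g ai/ha, delivered in acetone at 187 l/ha. For post-emergence treatments, plants have 2–3 leaves and the spray carries 0.25% v/v non-ionic surfactant.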

[11] = tested on: velvetleaf (Abutilon theophrasti, ABUTH); assay: Post-emerge test, greenhouse herbicide activity screening; settings: post-emerge, 14 days after application, rating scale 0-100
Excerpt: as §1, §2, §3, §4, §5

[12] = tested on: barnyardgrass (Echinochloa crus-galli, ECHCG); assay: as above; settings: post-emerge, 14 days after application, rating scale 0-100
Excerpt: as §1, §2, §3, §4, §5

[13] = tested on: lambsquarters (Chenopodium album, CHEAL); assay: as above; settings: post-emerge, 14 days after application, rating scale 0-100
Excerpt: as §1, §2, §3, §4, §5

[14] = tested on: green foxtail (Setaria viridis, SETVI); assay: as above; settings: post-emerge, 14 days after application, rating scale 0-100
Excerpt: as §1, §2, §3, §4, §5

[15] = tested on: sicklepod (Cassia obtusifolia, CASOB); assay: as above; settings: post-emerge, 14 days after application, rating scale 0-100
Excerpt: as §1, §2, §3, §4, §5

[16] = tested on: redroot pigweed (Amaranthus retroflexus, AMARE); assay: as above; settings: post-emerge, 14 days after application, rating scale 0-100
Excerpt: as §1, §2, §3, §4, §5

[17] = tested on: large crabgrass (Digitaria sanguinalis, DIGSA); assay: as above; settings: post-emerge, 14 days after application, rating scale 0-100
Excerpt: as §1, §2, §3, §4, §5

[18] = tested on: ivyleaf morningglory (Ipomoea hederacea, IPOHE); assay: as above; settings: post-emerge, 14 days after application, rating scale 0-100
Excerpt: as §1, §2, §3, §4, §5

[19] = tested on: field corn (Zea mays L., var. Dekalb 535, CORN); assay: Post-emerge test, crop safety; settings: post-emerge, 14 days after application, rating scale 0-100
In short: as §7

[20] = tested on: upland rice (Oryza sp., var. Tebonnet, RICE); assay: Post-emerge test, crop safety; settings: post-emerge, 14 days after application, rating scale 0-100
In short: as §7

COc1c(Cl)cc(F)c(-n2c(=O)cc(C(F)(F)F)n(N)c2=O)c1NC(=O)c1ccc2ccccc2c1 [2-184]
75: phytotoxicity rating CASOB ([5]; 250 g ai/ha) | CORN phytotoxicity rating (crop damage) ([19]; 250 g ai/ha)
40: ECHCG phytotoxicity rating ([12]; 63 g ai/ha) | RICE phytotoxicity rating (crop damage) ([20]; 63 g ai/ha)
50: phytotoxicity rating SETVI ([4]; 63 g ai/ha) | phytotoxicity rating CASOB ([5]; 63 g ai/ha) | phytotoxicity rating IPOHE ([7]; 63 g ai/ha) | ECHCG phytotoxicity rating ([12]; 250 g ai/ha)
20: DIGSA phytotoxicity rating ([17]; 63 g ai/ha)
30: phytotoxicity rating ECHCG ([2]; 63 g ai/ha) | phytotoxicity rating CORN (crop damage) ([8]; 250 g ai/ha) | phytotoxicity rating RICE (crop damage) ([9]; 63 g ai/ha)
90: DIGSA phytotoxicity rating ([17]; 250 g ai/ha)
60: phytotoxicity rating DIGSA ([6]; 63 g ai/ha) | phytotoxicity rating RICE (crop damage) ([9]; 250 g ai/ha) | SETVI phytotoxicity rating ([14]; 63 g ai/ha)
100: phytotoxicity rating ABUTH ([1]; 63 g ai/ha) | phytotoxicity rating ABUTH ([1]; 250 g ai/ha) | phytotoxicity rating CHEAL ([3]; 63 g ai/ha) | phytotoxicity rating CHEAL ([3]; 250 g ai/ha) | phytotoxicity rating SETVI ([4]; 250 g ai/ha) | phytotoxicity rating DIGSA ([6]; 250 g ai/ha) | phytotoxicity rating IPOHE ([7]; 250 g ai/ha) | phytotoxicity rating AMARE ([10]; 63 g ai/ha) | phytotoxicity rating AMARE ([10]; 250 g ai/ha) | ABUTH phytotoxicity rating ([11]; 63 g ai/ha) | ABUTH phytotoxicity rating ([11]; 250 g ai/ha) | CHEAL phytotoxicity rating ([13]; 63 g ai/ha) | CHEAL phytotoxicity rating ([13]; 250 g ai/ha) | CASOB phytotoxicity rating ([15]; 63 g ai/ha) | CASOB phytotoxicity rating ([15]; 250 g ai/ha) | AMARE phytotoxicity rating ([16]; 63 g ai/ha) | AMARE phytotoxicity rating ([16]; 250 g ai/ha) | IPOHE phytotoxicity rating ([18]; 63 g ai/ha) | IPOHE phytotoxicity rating ([18]; 250 g ai/ha)
10: CORN phytotoxicity rating (crop damage) ([19]; 63 g ai/ha)
65: RICE phytotoxicity rating (crop damage) ([20]; 250 g ai/ha)
80: phytotoxicity rating ECHCG ([2]; 250 g ai/ha) | SETVI phytotoxicity rating ([14]; 250 g ai/ha)
0: phytotoxicity rating CORN (crop damage) ([8]; 63 g ai/ha)
